Experimental data reported in patent publication US6998410B2, “Compositions” (Altana Pharma AG, priority 1997, dated 2006).

System: Adult Sprague Dawley rats lavaged until their endogenous lung surfactant is washed out
Experiment: Arterial oxygen partial pressure (PaO2) in lung-lavaged, ventilated rats (animal model of ARDS) after intratracheal instillation
Assay type: in vivo, rat (Sprague Dawley)
Settings: for PaO2, average value (± standard deviation): Compound A 600 μg/kg alone
Excerpt: Adult Sprague Dawley rats are artificially ventilated with pure oxygen and a positive end-expiratory pressure (PEEP; in order to guarantee oxygenation of the rats) and lavaged until their endogenous lung surfactant is washed out (D. Häfner, U. Kilian and R. Beume: Comparison of four lung surfactant preparations in an animal model of adult respiratory distress syndrome (ARDS). Am. Rev. Respir. Dis. 1993, 147:A719; D. Häfner, P. -G. Germann, D. Hauschke, Pulmonary Pharmacology (1994) 7, 319–332). This is manifested by the fact that in the animals the preliminary values of the arterial oxygen partial pressure (PaO2) of 500–550 mm Hg (in the case of pure oxygen ventilation and PEEP) decrease to values of 50–110 mm Hg. Animals of the control group, which are not treated with lung surfactant, remain with their PaO2 at these low values throughout the observation period. Sixty minutes after the PaO2 has decreased to these values, lung surfactant or lung surfactant together with N-(3,5-dichloropyrid-4-yl)-3-cyclopropylmethoxy-4-difluoromethoxybenzamide is instilled intratracheally. The blood gases are determined 30 and 120 minutes after instillation.
In Table 1 and Table 2 which follow, in line A the average values (±standard deviation) of the PaO2 are indicated in mm Hg for the time 30 minutes (constant PEEP of 8 cm H2O) after intratracheal instillation and in line B 120 minutes after intratracheal instillation. […] This follows by comparison with the untreated control animals. […] It is therefore possible to save a part of the very expensive lung surfactant, or else to obtain an increased action of each individual component.

O=C(Nc1c(Cl)cncc1Cl)c1ccc(OC(F)F)c(OCC2CC2)c1 [Compound A, N-(3,5-dichloropyrid-4-yl)-3-cyclopropylmethoxy-4-difluoromethoxybenzamide]
PaO2, average value (± standard deviation) (line A: 30 minutes after intratracheal instillation (constant PEEP of 8 cm H2O)): 59 ± 12 mm Hg
PaO2, average value (± standard deviation) (line B: 120 minutes after intratracheal instillation): 75 ± 24 mm Hg
Influence on the PaO2 (in words) (sole administration, by comparison with the untreated control animals): no influence on the PaO2
